Measured values from publication PMC4745082, “A Novel PET Imaging Probe for the Detection and Monitoring of Translocator Protein 18 kDa Expression in Pathological Disorders” (Scientific Reports, 2016).

Assays:
[1] = Log D determination (n-octanol / sodium phosphate buffer pH 7.4); format: physicochemical; settings: n-octanol / sodium phosphate buffer 0.15 M pH 7.4, measured four times
Description: After vortexing for 1 min, each tube was then stored for 3 min at room temperature and the phases were separated. Samples of each phase (100 μL) were counted for radioactivity. Log D is expressed as the logarithm of the ratio of the counts from n-octanol versus that of the sodium phosphate buffer.

[2] = Ex vivo tissue distribution in normal ICR mice; settings: for tissue radioactivity, Adrenal / tissue radioactivity, Blood / tissue radioactivity, Brain / tissue radioactivity, Femur / tissue radioactivity, Heart / tissue radioactivity, Kidney / tissue radioactivity, L. Intestine / tissue radioactivity, Liver / tissue radioactivity, Lung / tissue radioactivity, Muscle / tissue radioactivity, S. Intestine / tissue radioactivity, Spleen / tissue radioactivity, Stomach: normal ICR mice, tail-vein injection
Description: Purified [^18F]CB251 was reconstituted in a 10% ethanol-saline solution. Animals were killed at various times after tail-vein injection of [^18F]CB251 (0.74 MBq/0.2 mL per mouse) and the radioactivity concentrations were measured in various tissues upon dissection. […] The radioactivity concentration in the femur remained low for 120 min (1.19 ± 0.50%ID/g at 5 min post injection; 1.49 ± 0.80%ID/g at 120 min post injection).
Tissue distribution studies were performed in normal male ICR mice (7 weeks, 25-30 g) with tail-vein administration of [^18F]CB251 (0.74 MBq/mouse) dissolved in 10% ethanol in saline to a final volume of 200 μL. The animals (n = 5 for each time point) were euthanised with diethyl ether at 5, 15, 30, 60 and 120 min post injection. After the mice were euthanised, blood and other organs such as the heart, liver, lung, stomach, spleen, kidney, intestine, muscle, brain, adrenal and femur were removed, weighed and counted for radioactivity in a NaI (Tl) well counter (Wizard^TM3”, PerkinElmer). The injected dose was calculated from standards prepared from the injection solution. The accumulated radioactivity of all tissues is presented as the percentage of the injected dose per gram of tissue (%ID/g). All animal studies were performed with the approval of the Institutional Animal Care and Use Committee of the Seoul National University Bundang Hospital (SNUBH) and the methods were carried out in accordance with the approved guidelines.

**Q.** Which logD [1] does the source give for `CCCN(CCC)C(=O)Cc1c(-c2ccc(OCC[18F])cc2)nc2c(Cl)cc(Cl)cn12` [[^18F]CB251, 2-(2-(4-(2-[^18F]fluoroethoxy)phenyl)-6,8-dichloroimidazo[1,2-a]pyridin-3-yl)-N,N-dipropylacetamide] here?
**A.** The logD was 3 ± 0.03.

**Q.** What about the “uptake of radioactivity in the femur” value ([2]; healthy mice, summary bound in text, indicates negligible defluorination) of the same compound?
**A.** The value was less than 2 %ID/g.

**Q.** What about the “uptake in TSPO-enriched tissues” value ([2]; male, ICR, mouse, in vivo) of the same compound?
**A.** The value was greater than 22 %ID/g.

**Q.** What about the “tissue radioactivity, Adrenal” value ([2]; 5 min post injection) of the same compound?
**A.** The value was 19.06 ± 5.48 %ID/g.

**Q.** What about the “tissue radioactivity, Adrenal” value ([2]; 15 min post injection) of the same compound?
**A.** The value was 22.60 ± 5.00 %ID/g.

**Q.** And the “tissue radioactivity, Adrenal” value ([2]; 30 min post injection)?
**A.** Its value is 19.73 ± 3.42 %ID/g.

**Q.** And the “tissue radioactivity, Adrenal” value ([2]; 60 min post injection)?
**A.** Its value is 12.69 ± 5.62 %ID/g.

**Q.** What about the “tissue radioactivity, Adrenal” value ([2]; 120 min post injection) of the same compound?
**A.** The value was 14.78 ± 8.26 %ID/g.

**Q.** And the “tissue radioactivity, Blood” value ([2]; 5 min post injection)?
**A.** Its value is 4.39 ± 0.78 %ID/g.

**Q.** What about the “tissue radioactivity, Blood” value ([2]; 15 min post injection) of the same compound?
**A.** The value was 2.17 ± 0.40 %ID/g.

**Q.** And the “tissue radioactivity, Blood” value ([2]; 30 min post injection)?
**A.** Its value is 1.24 ± 0.26 %ID/g.

**Q.** And the “tissue radioactivity, Blood” value ([2]; 60 min post injection)?
**A.** The value was 0.60 ± 0.12 %ID/g.

**Q.** What about the “tissue radioactivity, Blood” value ([2]; 120 min post injection) of the same compound?
**A.** Its value is 0.64 ± 0.26 %ID/g.

**Q.** And the “tissue radioactivity, Brain” value ([2]; 5 min post injection)?
**A.** Its value is 2.89 ± 0.23 %ID/g.

**Q.** And the “tissue radioactivity, Brain” value ([2]; 15 min post injection)?
**A.** Its value is 1.94 ± 0.24 %ID/g.

**Q.** What about the “tissue radioactivity, Brain” value ([2]; 30 min post injection) of the same compound?
**A.** The value was 1.39 ± 0.13 %ID/g.

**Q.** What about the “tissue radioactivity, Brain” value ([2]; 60 min post injection) of the same compound?
**A.** Its value is 0.63 ± 0.24 %ID/g.

**Q.** And the “tissue radioactivity, Brain” value ([2]; 120 min post injection)?
**A.** Its value is 0.53 ± 0.23 %ID/g.

**Q.** And the “tissue radioactivity, Femur” value ([2]; 5 min post injection)?
**A.** Its value is 1.19 ± 0.50 %ID/g.

**Q.** And the “tissue radioactivity, Femur” value ([2]; 15 min post injection)?
**A.** Its value is 1.25 ± 0.41 %ID/g.

**Q.** What about the “tissue radioactivity, Femur” value ([2]; 30 min post injection) of the same compound?
**A.** Its value is 1.94 ± 0.36 %ID/g.

**Q.** What about the “tissue radioactivity, Femur” value ([2]; 60 min post injection) of the same compound?
**A.** The value was 1.41 ± 0.64 %ID/g.

**Q.** And the “tissue radioactivity, Femur” value ([2]; 120 min post injection)?
**A.** Its value is 1.49 ± 0.80 %ID/g.

**Q.** And the “tissue radioactivity, Heart” value ([2]; 5 min post injection)?
**A.** The value was 29.49 ± 2.36 %ID/g.

**Q.** What about the “tissue radioactivity, Heart” value ([2]; 15 min post injection) of the same compound?
**A.** Its value is 24.16 ± 4.67 %ID/g.

**Q.** And the “tissue radioactivity, Heart” value ([2]; 30 min post injection)?
**A.** The value was 23.11 ± 5.16 %ID/g.

**Q.** And the “tissue radioactivity, Heart” value ([2]; 60 min post injection)?
**A.** Its value is 10.47 ± 4.50 %ID/g.

**Q.** And the “tissue radioactivity, Heart” value ([2]; 120 min post injection)?
**A.** The value was 8.62 ± 4.57 %ID/g.

**Q.** What about the “tissue radioactivity, Kidney” value ([2]; 5 min post injection) of the same compound?
**A.** The value was 22.17 ± 1.63 %ID/g.

**Q.** And the “tissue radioactivity, Kidney” value ([2]; 15 min post injection)?
**A.** The value was 24.55 ± 5.11 %ID/g.

**Q.** What about the “tissue radioactivity, Kidney” value ([2]; 30 min post injection) of the same compound?
**A.** Its value is 23.19 ± 5.68 %ID/g.

**Q.** What about the “tissue radioactivity, Kidney” value ([2]; 60 min post injection) of the same compound?
**A.** Its value is 14.55 ± 5.74 %ID/g.

**Q.** What about the “tissue radioactivity, Kidney” value ([2]; 120 min post injection) of the same compound?
**A.** The value was 15.60 ± 8.55 %ID/g.

**Q.** And the “tissue radioactivity, L. Intestine” value ([2]; 5 min post injection)?
**A.** The value was 1.54 ± 0.19 %ID/g.

**Q.** What about the “tissue radioactivity, L. Intestine” value ([2]; 15 min post injection) of the same compound?
**A.** The value was 1.53 ± 0.13 %ID/g.

**Q.** What about the “tissue radioactivity, L. Intestine” value ([2]; 30 min post injection) of the same compound?
**A.** The value was 1.69 ± 0.21 %ID/g.

**Q.** And the “tissue radioactivity, L. Intestine” value ([2]; 60 min post injection)?
**A.** Its value is 1.37 ± 0.56 %ID/g.

**Q.** And the “tissue radioactivity, L. Intestine” value ([2]; 120 min post injection)?
**A.** Its value is 2.09 ± 1.07 %ID/g.

**Q.** And the “tissue radioactivity, Liver” value ([2]; 5 min post injection)?
**A.** The value was 4.69 ± 0.66 %ID/g.

**Q.** And the “tissue radioactivity, Liver” value ([2]; 15 min post injection)?
**A.** The value was 6.67 ± 1.10 %ID/g.

**Q.** What about the “tissue radioactivity, Liver” value ([2]; 30 min post injection) of the same compound?
**A.** Its value is 8.19 ± 1.59 %ID/g.

**Q.** And the “tissue radioactivity, Liver” value ([2]; 60 min post injection)?
**A.** The value was 6.80 ± 2.64 %ID/g.

**Q.** What about the “tissue radioactivity, Liver” value ([2]; 120 min post injection) of the same compound?
**A.** The value was 7.17 ± 2.99 %ID/g.

**Q.** And the “tissue radioactivity, Lung” value ([2]; 5 min post injection)?
**A.** The value was 106.4 ± 8.61 %ID/g.

**Q.** And the “tissue radioactivity, Lung” value ([2]; 15 min post injection)?
**A.** The value was 65.70 ± 11.3 %ID/g.

**Q.** What about the “tissue radioactivity, Lung” value ([2]; 30 min post injection) of the same compound?
**A.** The value was 38.36 ± 3.97 %ID/g.

**Q.** And the “tissue radioactivity, Lung” value ([2]; 60 min post injection)?
**A.** The value was 17.69 ± 5.77 %ID/g.

**Q.** What about the “tissue radioactivity, Lung” value ([2]; 120 min post injection) of the same compound?
**A.** The value was 13.22 ± 6.10 %ID/g.

**Q.** And the “tissue radioactivity, Muscle” value ([2]; 5 min post injection)?
**A.** The value was 0.83 ± 0.34 %ID/g.

**Q.** What about the “tissue radioactivity, Muscle” value ([2]; 15 min post injection) of the same compound?
**A.** The value was 1.19 ± 0.22 %ID/g.

**Q.** What about the “tissue radioactivity, Muscle” value ([2]; 30 min post injection) of the same compound?
**A.** The value was 2.01 ± 0.34 %ID/g.

**Q.** What about the “tissue radioactivity, Muscle” value ([2]; 60 min post injection) of the same compound?
**A.** Its value is 1.52 ± 0.59 %ID/g.

**Q.** And the “tissue radioactivity, Muscle” value ([2]; 120 min post injection)?
**A.** Its value is 1.45 ± 0.65 %ID/g.

**Q.** And the “tissue radioactivity, S. Intestine” value ([2]; 5 min post injection)?
**A.** The value was 3.30 ± 0.73 %ID/g.

**Q.** What about the “tissue radioactivity, S. Intestine” value ([2]; 15 min post injection) of the same compound?
**A.** The value was 4.54 ± 0.60 %ID/g.

**Q.** What about the “tissue radioactivity, S. Intestine” value ([2]; 30 min post injection) of the same compound?
**A.** The value was 4.43 ± 0.90 %ID/g.

**Q.** What about the “tissue radioactivity, S. Intestine” value ([2]; 60 min post injection) of the same compound?
**A.** The value was 3.43 ± 1.35 %ID/g.

**Q.** What about the “tissue radioactivity, S. Intestine” value ([2]; 120 min post injection) of the same compound?
**A.** The value was 3.78 ± 1.96 %ID/g.

**Q.** What about the “tissue radioactivity, Spleen” value ([2]; 5 min post injection) of the same compound?
**A.** Its value is 17.63 ± 3.38 %ID/g.

**Q.** What about the “tissue radioactivity, Spleen” value ([2]; 15 min post injection) of the same compound?
**A.** The value was 25.11 ± 2.16 %ID/g.

**Q.** And the “tissue radioactivity, Spleen” value ([2]; 30 min post injection)?
**A.** The value was 23.27 ± 3.52 %ID/g.

**Q.** And the “tissue radioactivity, Spleen” value ([2]; 60 min post injection)?
**A.** Its value is 14.24 ± 4.47 %ID/g.

**Q.** And the “tissue radioactivity, Spleen” value ([2]; 120 min post injection)?
**A.** Its value is 13.82 ± 5.17 %ID/g.

**Q.** What about the “tissue radioactivity, Stomach” value ([2]; 5 min post injection) of the same compound?
**A.** Its value is 1.86 ± 0.48 %ID/g.

**Q.** What about the “tissue radioactivity, Stomach” value ([2]; 15 min post injection) of the same compound?
**A.** The value was 2.13 ± 0.77 %ID/g.

**Q.** And the “tissue radioactivity, Stomach” value ([2]; 30 min post injection)?
**A.** The value was 1.84 ± 0.49 %ID/g.

**Q.** And the “tissue radioactivity, Stomach” value ([2]; 60 min post injection)?
**A.** The value was 0.98 ± 0.41 %ID/g.

**Q.** And the “tissue radioactivity, Stomach” value ([2]; 120 min post injection)?
**A.** Its value is 1.97 ± 0.95 %ID/g.
